The source of these data is patent US20260250322A1, “NEW PEPTIDES AS SELECTIVE IL-23 RECEPTOR INHIBITORS” (SANOFI, priority 2023, published 2026).

The target of data set [1] is T1, human IL-23R (Homo sapiens, UniProt Q5VWK5).
T1 sequence (Q5VWK5 24-355 limits assumed): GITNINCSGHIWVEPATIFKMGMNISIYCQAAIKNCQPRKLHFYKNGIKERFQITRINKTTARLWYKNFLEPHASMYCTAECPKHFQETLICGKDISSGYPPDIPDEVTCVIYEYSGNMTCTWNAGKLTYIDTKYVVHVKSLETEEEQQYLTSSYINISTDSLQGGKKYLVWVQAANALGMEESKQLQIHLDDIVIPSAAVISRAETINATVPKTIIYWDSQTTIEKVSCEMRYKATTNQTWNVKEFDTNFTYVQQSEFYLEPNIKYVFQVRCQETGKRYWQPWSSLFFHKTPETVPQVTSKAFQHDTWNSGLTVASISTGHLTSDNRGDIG
In words: Human ELISA IL-23/IL-23R binding inhibition. To be noted: human IL-23 coated, recombinant human IL-23R-Fc chimera. As for the experimental part:
Antagonism of peptide compounds for human interleukin-23 receptor inhibitors, was determined by an ELISA assay.
A 384-well plate was coated with 50 μl/well of human IL-23 at a final concentration of 1 μg/ml and incubated overnight at 4° C. The wells were washed 3 times with 80 μl wash buffer and blocked with 80 μl blocking buffer for 60 minutes at room temperature and washed again. 20 μl of serially diluted test peptides was added to each well and subsequently 20 μl of recombinant human IL-23R-Fc chimera at final concentration of 0.1 μg/ml. The plate was incubated for 60 minutes at room temperature. After the wells were washed, bound IL-23R-Fc was detected with goat anti-hu-lgG1-HRP antibody. Signals were visualized with QuantaBlu Fluorogenic Peroxidase Substrate.

In data set [2] the test system is IL-23 induced STAT3 signaling. Description: Inhibition of IL-23 induced STAT3 signaling in HEK-Blue IL-23 cells (SEAP reporter). Format: cell-based. Conditions: human IL-23 0.25 ng/ml, read-out: Inhibition of IL-23 induced pSTAT3 (IC50 nM). From the text: HEK-Blue™ IL-23 cells (Invivogen) are designed for the detection of bioactive human (hIL-23) and murine IL-23 (mIL-23) by monitoring the activation of the STAT3 pathway. Binding of IL-23 to its receptor on the surface of HEK-Blue™ IL-23 cells triggers a signaling cascade leading to the activation of STAT3 and the subsequent production of secreted embryonic alkaline phosphatase (SEAP). This can be readily assessed using QUANTI-Blue™ Solution, a SEAP detection reagent.
HEK-Blue™ IL-23 cells were cultured as described by Invivogen.
On the first day of assay 10 μL of the HEK-Blue IL-23 cell suspension (final concentration: 10,000 cells/well) and 10 μl of serially diluted compound solutions were dispensed into a 384-well assay plate. After pre-incubation of the reaction mixtures at 37° C./5% CO2/95% humidity for 60 minutes, 10 μl of the humanIL-23 cytokine (final concentration: 0.25 ng/ml) was added to each well for the STAT3 signaling activation. The plate was incubated overnight at 37° C./5% CO2/95% humidity.
On the second day 20 μl per well of Quanti-Blue detection solution (prepared according to the manufacture instruction) was dispensed into a new 384-well plate and followed by the transfer of 5 μl supernatant of the overnight incubated cell/sample mixtures. After incubation of 45 min at room temperature signals were measured with PHERAstar (BMG) at OD 620-655 nm.
Dose response data were fitted with XLfit.

Data set [3] can be described thus: Chemical stability (relative purity loss) of peptide compounds in buffer formulations. It counts as physicochemical. On the procedure: Purity of a compound batch was determined through UHPLC/MS prior to chemical stability measurement using Method A.
For stability assessment, the target concentration was 300 μM pure compound. Therefore, solutions from solid samples were prepared in the following buffer systems with a concentration of ~300 µM compound based on the previously determined % purity. The solid samples were obtained by drying down aliquots of a freshly prepared acetonitrile stock solution using a THERMO SPEEDVAC vacuum centrifuge. The dry down time was 3 hours.
The following buffer systems were applied: • Solubility buffer system A) 100 mM phosphate buffer pH 7.4. • Solubility buffer system B) 100 mM phosphate buffer pH 6.5. • Solubility buffer system C) 100 mM HCl pH 1.2.
Prepared solutions were filtered through […] pore size and filled into sterilized glass containers under laminar flow conditions.
[…] After this time course, the samples were centrifuged for 15 min at 2500 RCF. Then 1.5 μl of the undiluted supernatant were analysed with UHPLC-UV.
The chemical stability was rated through the relative loss of purity calculated by the equation:
[(purity after 0 hours at 37° C.)(purity after 24 hours at 37° C.)]/(purity after 0 hours at 37° C.)]*100%.
The purity is calculated as [(peak area peptide)/(total peak area)]*100%.
Buffer composition: 100 mM HCl pH 1.2, 100 mM phosphate buffer pH 6.5, 100 mM phosphate buffer pH 7.4

Where [4] appears, read: pH 6.5 (100 mM phosphate buffer).
Setting [5] is: pH 7.4 (100 mM phosphate buffer).

Bridge positions count the residues as written; N and C are the ends. Square brackets hold non-standard residues; d marks the D form. Peptide text beside a SMILES is read from it. Trp(1-Me) = Cn1cc(C[C@H](N)C(=O)O)c2ccccc21; 1Nal = N[C@@H](Cc1cccc2ccccc12)C(=O)O; 2Nal = N[C@@H](Cc1ccc2ccccc2c1)C(=O)O; AEF = NCCOc1ccc(C[C@H](N)C(=O)O)cc1; Orn = NCCC[C@H](N)C(=O)O; Aib = CC(C)(N)C(=O)O

For the molecule `COc1ccc(C[C@@H]2NC(=O)[C@H](CC(C)C)NC(=O)[C@H](CCC(N)=O)NC(=O)[C@H](Cc3c[nH]c4ccccc34)NC(=O)[C@H]([C@@H](C)O)NC(=O)[C@H](CC(N)=O)NC(=O)[C@H](NC(C)=O)CCCCNC(=O)C[C@@H](C(=O)N[C@@H](CC(N)=O)C(=O)N[C@@H](CC(N)=O)C(N)=O)NC(=O)C(C)(C)NC(=O)[C@H](Cc3ccc4ccccc4c3)NC2=O)cc1` [compound 1] (Ac-[dK]NTWQLY(Me)[2Nal][Aib]DNN-NH2; lactam 1-10), the IC50 – broadly, the concentration at which inhibition is half-maximal – in data set [1] turned out to be 0.63 nM; in data set [2] it was 334 nM.

With `COc1ccc(C[C@@H]2NC(=O)[C@H](C)NC(=O)[C@H](CCC(N)=O)NC(=O)[C@H](Cc3c[nH]c4ccccc34)NC(=O)[C@H]([C@@H](C)O)NC(=O)[C@H](CC(N)=O)NC(=O)[C@H](NC(C)=O)CCCCNC(=O)C[C@@H](C(=O)N[C@@H](CC(N)=O)C(=O)N[C@@H](CC(N)=O)C(N)=O)NC(=O)C(C)(C)NC(=O)[C@H](Cc3ccc4ccccc4c3)NC2=O)cc1` [compound 2] (Ac-[dK]NTWQAY(Me)[2Nal][Aib]DNN-NH2; lactam 1-10), the values for the IC50 in data set [1] and in data set [2] were 0.69 nM and 234 nM, respectively.

Take `CC(=O)N[C@@H]1CCCCNC(=O)C[C@@H](C(=O)N[C@@H](CC(N)=O)C(=O)N[C@@H](CC(N)=O)C(N)=O)NC(=O)C(C)(C)NC(=O)[C@H](Cc2ccc3ccccc3c2)NC(=O)[C@H](Cc2ccc(O)cc2)NC(=O)[C@H](CCCNC(=N)N)NC(=O)[C@H](CCC(N)=O)NC(=O)[C@H](Cc2c[nH]c3ccccc23)NC(=O)[C@H]([C@@H](C)O)NC(=O)[C@H](CC(N)=O)NC1=O` [compound 4] (Ac-[dK]NTWQRY[2Nal][Aib]DNN-NH2; lactam 1-10): the half-inhibitory concentration (IC50) in data set [2] came out at 339 nM. In addition, in data set [3] (pH 1.2 (100 mM HCl)), the “Conc. [mg/ml] 0 h” value was 1.4 mg/mL, the “Conc. [mg/ml] 24 h 37° C.” value was determined as 1.0 mg/mL, the “Mass Balance [%] 24 h 37° C.” value is given as −2.3% and the “Relative Purity Loss [%] 24 h 37° C.” value is given as 22.9%. Also, in data set [3] (setting [4]), the “Conc. [mg/ml] 0 h” value turned out to be 1.4 mg/mL, the “Conc. [mg/ml] 24 h 37° C.” value was 1.3 mg/mL, the “Mass Balance [%] 24 h 37° C.” value is −4.6% and the “Relative Purity Loss [%] 24 h 37° C.” value was found to be 0.7%. Also, in data set [3] (setting [5]), the “Conc. [mg/ml] 0 h” value is 1.4 mg/mL, the “Conc. [mg/ml] 24 h 37° C.” value amounted to 1.3 mg/mL, the “Mass Balance [%] 24 h 37° C.” value is −2.2% and the “Relative Purity Loss [%] 24 h 37° C.” value was determined as 2.7%.

With `COc1ccc(C[C@@H]2NC(=O)[C@H](CCCNC(=N)N)NC(=O)[C@H](CCC(N)=O)NC(=O)[C@H](Cc3c[nH]c4ccccc34)NC(=O)[C@H]([C@@H](C)O)NC(=O)[C@H](CC(N)=O)NC(=O)[C@H](NC(C)=O)CCCCNC(=O)CC[C@@H](C(=O)N[C@@H](CC(N)=O)C(=O)N[C@@H](CC(N)=O)C(N)=O)NC(=O)C(C)(C)NC(=O)[C@H](Cc3ccc4ccccc4c3)NC2=O)cc1` [compound 5] (Ac-[dK]NTWQRY(Me)[2Nal][Aib]ENN-NH2; lactam 1-10), the 50% inhibitory concentration (IC50) in data set [1] was found to be 1.95 nM; in data set [2] it was 432 nM.

On to `COc1ccc(C[C@@H]2NC(=O)[C@H](CCCNC(=N)N)NC(=O)[C@H](CCC(N)=O)NC(=O)[C@H](Cc3c[nH]c4ccccc34)NC(=O)[C@H]([C@@H](C)O)NC(=O)[C@H](CC(N)=O)NC(=O)[C@@H](NC(C)=O)CCCCNC(=O)C[C@@H](C(=O)N[C@@H](CC(N)=O)C(=O)N[C@@H](CC(N)=O)C(N)=O)NC(=O)C(C)(C)NC(=O)[C@H](Cc3cccc4ccccc34)NC2=O)cc1` [compound 9] (Ac-KNTWQRY(Me)[1Nal][Aib]DNN-NH2; lactam 1-10), for which, in data set [2], the IC50 is 1610 nM. Besides, in data set [3] (pH 1.2 (100 mM HCl)), the “Conc. [mg/ml] 0 h” value came to 1.5 mg/mL, the “Conc. [mg/ml] 24 h 37° C.” value was found to be 1.1 mg/mL, the “Mass Balance [%] 24 h 37° C.” value is −1.9% and the “Relative Purity Loss [%] 24 h 37° C.” value is listed as 22.3%. Besides, in data set [3] (setting [4]), the “Conc. [mg/ml] 0 h” value came to 1.2 mg/mL, the “Conc. [mg/ml] 24 h 37° C.” value amounted to 1.2 mg/mL, the “Mass Balance [%] 24 h 37° C.” value is listed as −1.8% and the “Relative Purity Loss [%] 24 h 37° C.” value is recorded as 1.2%. Further, in data set [3] (setting [5]), the “Conc. [mg/ml] 0 h” value came to 1.5 mg/mL, the “Conc. [mg/ml] 24 h 37° C.” value stood at 1.4 mg/mL, the “Mass Balance [%] 24 h 37° C.” value is recorded as −3.2% and the “Relative Purity Loss [%] 24 h 37° C.” value is 2.6%.

`COc1ccc(C[C@@H]2NC(=O)[C@H](CCCNC(=N)N)NC(=O)[C@H](CCC(N)=O)NC(=O)[C@H](Cc3cn(C)c4ccccc34)NC(=O)[C@H]([C@@H](C)O)NC(=O)[C@H](CC(N)=O)NC(=O)[C@H](NC(C)=O)CCCCNC(=O)C[C@@H](C(=O)N[C@@H](CC(N)=O)C(=O)N[C@@H](CC(N)=O)C(N)=O)NC(=O)[C@H](CCCCNC(C)=O)NC(=O)[C@H](Cc3ccc4ccccc4c3)NC2=O)cc1` [compound 10] (Ac-[dK]NT[Trp(1-Me)]QRY(Me)[2Nal]K(Ac)DNN-NH2; lactam 1-10): the IC50 amounted to 3.6 nM in data set [1] and 1440 nM in data set [2].

On to `COc1ccc(C[C@@H]2NC(=O)[C@H](CCCNC(=N)N)NC(=O)[C@H](CCC(N)=O)NC(=O)[C@H](Cc3c[nH]c4ccccc34)NC(=O)[C@H]([C@@H](C)O)NC(=O)[C@H](CC(N)=O)NC(=O)[C@H](NC(C)=O)CCCCNC(=O)C[C@@H](C(=O)N[C@@H](CC(N)=O)C(N)=O)NC(=O)C(C)(C)NC(=O)[C@H](Cc3ccc4ccccc4c3)NC2=O)cc1` [compound 26] (Ac-[dK]NTWQRY(Me)[2Nal][Aib]DN-NH2; lactam 1-10), for which the IC50 in data set [2] came out at 8110 nM.

As to `COc1ccc(C[C@@H]2NC(=O)[C@H](CCCNC(=N)N)NC(=O)[C@H](CCC(N)=O)NC(=O)[C@H](Cc3c[nH]c4ccccc34)NC(=O)[C@H]([C@@H](C)O)NC(=O)[C@H](CC(N)=O)NC(=O)[C@H](NC(C)=O)CCCCNC(=O)C[C@@H](C(=O)N[C@@H](CC(N)=O)C(=O)N[C@@H](CC(N)=O)C(N)=O)NC(=O)[C@H](CCCCNC(C)=O)NC(=O)[C@H](Cc3ccc4ccccc4c3)NC2=O)cc1` [compound 28] (Ac-[dK]NTWQRY(Me)[2Nal]K(Ac)DNN-NH2; lactam 1-10), in data set [2], the IC50 was 2210 nM.

As for `COc1ccc(C[C@@H]2NC(=O)[C@H](CCCNC(=N)N)NC(=O)[C@H](CCC(N)=O)NC(=O)[C@H](Cc3c[nH]c4ccccc34)NC(=O)[C@H]([C@@H](C)O)NC(=O)[C@H](CC(N)=O)NC(=O)[C@H](NC(C)=O)CCCCNC(=O)C[C@@H](C(=O)N[C@@H](CC(N)=O)C(=O)N[C@@H](CC(N)=O)C(N)=O)NC(=O)[C@H](CCC(N)=O)NC(=O)[C@H](Cc3ccc4ccccc4c3)NC2=O)cc1` [compound 30] (Ac-[dK]NTWQRY(Me)[2Nal]QDNN-NH2; lactam 1-10), the IC50 in data set [2] was 6050 nM.

On to `CC(=O)N[C@H]1CCCNC(=O)CC[C@@H](C(=O)N[C@@H](CC(N)=O)C(=O)N[C@@H](CC(N)=O)C(N)=O)NC(=O)C(C)(C)NC(=O)[C@H](Cc2ccc3ccccc3c2)NC(=O)[C@H](Cc2ccc(OCCN)cc2)NC(=O)[C@H](CCCNC(=N)N)NC(=O)[C@H](CCC(N)=O)NC(=O)[C@H](Cc2c[nH]c3ccccc23)NC(=O)[C@H]([C@@H](C)O)NC(=O)[C@H](CC(N)=O)NC1=O` [compound 38] (Ac-[Orn]NTWQR[AEF][2Nal][Aib]ENN-NH2; lactam 1-10), for which the IC50 in data set [2] was found to be 1570 nM.
